The values that follow come from ChEMBL document CHEMBL1201862, “PubChem BioAssay data set” (2004).

Among the test systems are MCF7; Malme-3M; CAKI-1; COLO 205; CCRF-CEM; MOLT-4; OVCAR-4; BT-549; OVCAR-5; SK-MEL-2; KM12; UACC-257; NCI/ADR-RES; SW-620; SF-295; IGROV-1; ACHN; SF-268; U-251; DU-145.
Assay in all cases: NCI-60 cell line screen, 48 h

Structures are written as SMILES.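 Where inhibition never reached the appropriate level, the endpoint shown equals the highest concentration tested. Otherwise, values were interpolated linearly from a five-concentration, 48-hour dose response in 96-well plates. GI50 is the concentration that inhibits growth by half.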 Activity calls are given as the source filed them. Cut-off read from the data, not from the text of the source: active = GI50 up to about 1.1 µM and inactive = higher.

On to `Cc1cnc2c(c1)C(=O)N(c1ccc(Br)cc1)S2(=O)=O`, for which the GI50 was > 100 µM (inactive) in the experiment on MCF7; 35.6 µM (inactive) in the experiment on Malme-3M; > 100 µM (inactive) in the experiment on CAKI-1; > 100 µM (inactive) in the experiment with COLO 205; > 100 µM (inactive) in the experiment with CCRF-CEM; > 100 µM (inactive) with MOLT-4. Besides, the GI50 is 44.4 µM (inactive) with OVCAR-4; > 100 µM (inactive) in the experiment with BT-549; > 100 µM (inactive) in the experiment on OVCAR-5; > 100 µM (inactive) in the experiment with SK-MEL-2; > 100 µM (inactive) in the experiment on KM12; > 100 µM (inactive) in the experiment on UACC-257. The GI50 with NCI/ADR-RES is > 100 µM (inactive); in the experiment with SW-620, > 100 µM (inactive); in the experiment on SF-295, > 100 µM (inactive); in the experiment on IGROV-1, 56.1 µM (inactive); with ACHN it was > 100 µM (inactive); with SF-268, 78.5 µM (inactive). Further, the GI50 in the experiment with U-251 and with DU-145 was > 100 µM (inactive) each time.

With `C=C(C)[C@H]1C[C@@H]2O[C@@](O)(/C(C)=C\C(=O)/C=C(/C)C[C@H]3OC(=O)[C@@]24O[C@H]34)[C@@H]1O`, the GI50 in the experiment on MCF7, in the experiment with Malme-3M, in the experiment with CAKI-1, with COLO 205, with CCRF-CEM and in the experiment with MOLT-4 was > 100 µM (inactive) throughout. In addition, the GI50 in the experiment with OVCAR-4, in the experiment on BT-549, in the experiment with OVCAR-5, in the experiment on SK-MEL-2, in the experiment with KM12 and in the experiment on UACC-257 was > 100 µM (inactive) in each case. Also, the GI50 with NCI/ADR-RES, with SW-620, in the experiment with SF-295, with IGROV-1, with ACHN and in the experiment with SF-268 was > 100 µM (inactive) throughout. Also, the GI50 in the experiment with U-251 and in the experiment with DU-145 was > 100 µM (inactive) throughout.

In the case of `COc1ccc(Nc2n[nH]c(NS(=O)(=O)c3cc(C)c(Cl)cc3S)n2)cc1`, the GI50 in the experiment with MCF7, in the experiment with Malme-3M, with CAKI-1, in the experiment on COLO 205, in the experiment with CCRF-CEM and in the experiment on MOLT-4 was > 100 µM (inactive) in each case. Further, the GI50 with OVCAR-4, in the experiment with BT-549, in the experiment with OVCAR-5, in the experiment on SK-MEL-2, in the experiment with KM12 and with UACC-257 was > 100 µM (inactive) throughout. Also, the GI50 in the experiment on NCI/ADR-RES, in the experiment on SW-620, with SF-295, in the experiment on IGROV-1, in the experiment with ACHN and in the experiment with SF-268 was > 100 µM (inactive) in each case. The GI50 with U-251 and in the experiment with DU-145 was > 100 µM (inactive) each time.

`CN(CCNC(=O)c1c[nH]c2c1ccc1ccccc12)CCNC(=O)c1c[nH]c2c1ccc1ccccc12`: the GI50 was 1.43 µM (inactive) with MCF7; 8.55 µM (inactive) in the experiment on Malme-3M; 2.56 µM (inactive) with CAKI-1; 1.61 µM (inactive) with COLO 205; 1.73 µM (inactive) in the experiment with CCRF-CEM; 2.01 µM (inactive) in the experiment with MOLT-4. For the same compound, the GI50 in the experiment with OVCAR-4 is 3.54 µM (inactive); in the experiment with BT-549 it was 9.35 µM (inactive); in the experiment with OVCAR-5, 4.74 µM (inactive); in the experiment with SK-MEL-2, 1.99 µM (inactive); in the experiment on KM12, 1.66 µM (inactive); with UACC-257, 1.79 µM (inactive). In addition, the GI50 in the experiment on NCI/ADR-RES is 4.81 µM (inactive); with SW-620, 1.91 µM (inactive); in the experiment with SF-295 it was 2.22 µM (inactive); in the experiment on IGROV-1 it was 1.41 µM (inactive); with ACHN it was 1.86 µM (inactive); with SF-268, 3.1 µM (inactive). Besides, the GI50 in the experiment with U-251 was 2 µM (inactive); with DU-145, 1.99 µM (inactive).

Consider `Cc1ccnc(NS(=O)(=O)c2ccc(NC(=O)c3ccc4nc5ccccc5c(Nc5ccc(S(=O)(=O)Nc6nccc(C)n6)cc5)c4c3)cc2)n1`, for which the GI50 in the experiment on MCF7 is 21.1 µM (inactive); in the experiment on Malme-3M, 78.5 µM (inactive); in the experiment with CAKI-1, > 100 µM (inactive); in the experiment on COLO 205 it was > 100 µM (inactive); in the experiment with CCRF-CEM, 42.3 µM (inactive); with MOLT-4, 39.9 µM (inactive). The GI50 was 52.4 µM (inactive) in the experiment with OVCAR-4; 14.3 µM (inactive) with BT-549; > 100 µM (inactive) with OVCAR-5; 16 µM (inactive) with SK-MEL-2; 29 µM (inactive) in the experiment on KM12; > 100 µM (inactive) in the experiment on UACC-257. Moreover, the GI50 is > 100 µM (inactive) in the experiment with NCI/ADR-RES; > 100 µM (inactive) in the experiment on SW-620; > 100 µM (inactive) with SF-295; 63.1 µM (inactive) in the experiment with IGROV-1; > 100 µM (inactive) with ACHN; 28.3 µM (inactive) with SF-268. The GI50 with U-251 was 19.8 µM (inactive); with DU-145, > 100 µM (inactive).

`COc1cc(C2C3=C(NC(=O)C2C#N)c2ccc4ccccc4c2OCC3)cc(OC)c1OC` (stereo not given): the GI50 in the experiment with MCF7 is 30.9 µM (inactive); with Malme-3M, 17.8 µM (inactive); in the experiment on CAKI-1, 20.1 µM (inactive); with COLO 205, 15.4 µM (inactive); in the experiment on CCRF-CEM, 70.8 µM (inactive); in the experiment on MOLT-4 it was 34.2 µM (inactive). The GI50 with OVCAR-4 was 48 µM (inactive); in the experiment on BT-549, 17.3 µM (inactive); with OVCAR-5, 17.6 µM (inactive); with SK-MEL-2, 22.1 µM (inactive); in the experiment on KM12 it was 44.9 µM (inactive); in the experiment on UACC-257, 56.5 µM (inactive). In addition, the GI50 was 30.4 µM (inactive) in the experiment on NCI/ADR-RES; 78.7 µM (inactive) with SW-620; 27.6 µM (inactive) in the experiment with SF-295; 16.2 µM (inactive) in the experiment with IGROV-1; 16.6 µM (inactive) in the experiment on ACHN; 22.8 µM (inactive) in the experiment with SF-268. Also, the GI50 was 16.7 µM (inactive) in the experiment on U-251 and 34.4 µM (inactive) in the experiment on DU-145.

For the compound `Cc1ccc2c(n1)C(=O)c1cc(C)c(C)cc1C2=O`, the GI50 in the experiment with MCF7 was 67 µM (inactive); in the experiment with Malme-3M, 43.1 µM (inactive); in the experiment on CAKI-1, > 100 µM (inactive); with COLO 205, 32 µM (inactive); with CCRF-CEM, > 100 µM (inactive); in the experiment on MOLT-4, > 100 µM (inactive). The GI50 with OVCAR-4 was 70.3 µM (inactive); in the experiment with BT-549 it was > 100 µM (inactive); with OVCAR-5 it was 68.9 µM (inactive); with SK-MEL-2, > 100 µM (inactive); in the experiment with KM12, 53.2 µM (inactive); in the experiment on UACC-257 it was 30.4 µM (inactive). The GI50 was 44 µM (inactive) in the experiment with NCI/ADR-RES; 73.6 µM (inactive) in the experiment with SW-620; > 100 µM (inactive) with SF-295; 63.1 µM (inactive) in the experiment on IGROV-1; > 100 µM (inactive) in the experiment with ACHN; 49.8 µM (inactive) with SF-268. The GI50 in the experiment with U-251 is 27.4 µM (inactive); in the experiment with DU-145, > 100 µM (inactive).

For `COc1cc2c3c(cc(Cl)nc3c1OC)C(O)(CC(=O)c1ccccc1)C(=O)N2` (stereo not given), the GI50 is 1.88 µM (inactive) in the experiment with MCF7; 2.38 µM (inactive) in the experiment with Malme-3M; 17.5 µM (inactive) in the experiment with CAKI-1; 24.3 µM (inactive) in the experiment with COLO 205; 1.64 µM (inactive) in the experiment with CCRF-CEM; 1.71 µM (inactive) with MOLT-4. In addition, the GI50 in the experiment with OVCAR-4 is 2.35 µM (inactive); in the experiment on BT-549, 16.4 µM (inactive); in the experiment on OVCAR-5, 19.1 µM (inactive); with SK-MEL-2 it was 15.1 µM (inactive); with KM12 it was 17.3 µM (inactive); in the experiment with UACC-257 it was 8.15 µM (inactive). Also, the GI50 is 24.8 µM (inactive) in the experiment on NCI/ADR-RES; 4 µM (inactive) in the experiment with SW-620; 17.9 µM (inactive) with SF-295; 13.2 µM (inactive) in the experiment with IGROV-1; 14.9 µM (inactive) in the experiment with ACHN; 4.94 µM (inactive) in the experiment with SF-268. The GI50 in the experiment on U-251 is 17.1 µM (inactive); in the experiment with DU-145 it was 16.2 µM (inactive).

On to `O=C1CC(NCCCNC2CC(=O)c3c(Br)sc(Br)c32)c2c(Br)sc(Br)c21` (stereo not given), for which the GI50 was 0.369 µM (active) with MCF7; 1.98 µM (inactive) in the experiment on Malme-3M; 2.03 µM (inactive) with CAKI-1; 2.22 µM (inactive) with COLO 205; 0.238 µM (active) in the experiment with CCRF-CEM; 0.42 µM (active) with MOLT-4. Besides, the GI50 was 2.93 µM (inactive) with OVCAR-4; 1.73 µM (inactive) in the experiment with BT-549; 2.21 µM (inactive) in the experiment on OVCAR-5; 1.87 µM (inactive) with SK-MEL-2; 1.49 µM (inactive) in the experiment with KM12; 2.92 µM (inactive) in the experiment on UACC-257. In addition, the GI50 was 2.16 µM (inactive) with NCI/ADR-RES; 2.31 µM (inactive) in the experiment on SW-620; 3.78 µM (inactive) with SF-295; 1.71 µM (inactive) in the experiment on IGROV-1; 1.8 µM (inactive) in the experiment on ACHN; 2.54 µM (inactive) in the experiment on SF-268. Moreover, the GI50 with U-251 was 1.82 µM (inactive); in the experiment with DU-145, 1.66 µM (inactive).

For the compound `CC(C)(C)OC(=O)NCCCCC(N)NC(=O)c1ccccc1` (stereo not given), the GI50 in the experiment on MCF7, in the experiment with Malme-3M, with CAKI-1, in the experiment with COLO 205, with CCRF-CEM and in the experiment with MOLT-4 was > 100 µM (inactive) in each case. Also, the GI50 in the experiment on OVCAR-4, with BT-549, with OVCAR-5, in the experiment on SK-MEL-2, with KM12 and in the experiment with UACC-257 was > 100 µM (inactive) throughout. Moreover, the GI50 with NCI/ADR-RES, in the experiment with SW-620, with SF-295, in the experiment with IGROV-1, in the experiment on ACHN and with SF-268 was > 100 µM (inactive) each time. The GI50 in the experiment on U-251 and with DU-145 was > 100 µM (inactive) in each case.
